For experiment [1], the target named is Human recombinant MMP-13 (Homo sapiens, UniProt P45452). The experiment can be described thus: Inhibition of MMP-13. The format is biochemical. The note with it: fluorogenic substrate Dnp-Pro-Cha-Gly-Cys(Me)-His-Ala-Lys(NMA)-NH2; repeated determinations. On the procedure: Human recombinant MMP-13 is activated with 2mM APMA (p-aminophenyl mercuric acetate) for 1.5 hours, at 37°C and is diluted to […] in assay buffer (50 mM Tris, pH 7.5, 200 mM sodium chloride, 5mM calcium chloride, […], 0.02% brij). Twenty-five microliters of diluted enzyme is added per well of a 96 well microfluor plate. The enzyme is then diluted in a 1:4 ratio in the assay by the addition of inhibitor and substrate to give a final concentration in the assay of […].
10 mM stock solutions of inhibitors are made up in dimethyl sulfoxide and then diluted in assay buffer as per the inhibitor dilution scheme for inhibition of human collagenase (MMP-1): Twenty-five microliters of each concentration is added in triplicate to the microfluor plate. The final concentrations in the assay are 30 mM, 3mM, 0.3 mM, and 0.03 mM.
Substrate (Dnp-Pro-Cha-Gly-Cys(Me)-His-Ala-Lys(NMA)-NH2) is prepared as for inhibition of human collagenase (MMP-1) and […] is added to each well to give a final assay concentration of […]. Fluorescence readings (360 nm excitation; 450 emission) are taken at time 0 and every 5 minutes for 1 hour.
Positive controls consist of enzyme and substrate with no inhibitor and blanks consist of substrate only.
IC50's are determined as per inhibition of human collagenase (MMP-1). If IC50's are reported to be less than […], inhibitors are then assayed at final concentrations of 0.3 mM, 0.03 mM, 0.003 mM and 0.0003 mM.

The target of experiment [2] is T1, Human recombinant collagenase (MMP-1) (Homo sapiens, UniProt P03956).
T1 sequence (P03956 100-469): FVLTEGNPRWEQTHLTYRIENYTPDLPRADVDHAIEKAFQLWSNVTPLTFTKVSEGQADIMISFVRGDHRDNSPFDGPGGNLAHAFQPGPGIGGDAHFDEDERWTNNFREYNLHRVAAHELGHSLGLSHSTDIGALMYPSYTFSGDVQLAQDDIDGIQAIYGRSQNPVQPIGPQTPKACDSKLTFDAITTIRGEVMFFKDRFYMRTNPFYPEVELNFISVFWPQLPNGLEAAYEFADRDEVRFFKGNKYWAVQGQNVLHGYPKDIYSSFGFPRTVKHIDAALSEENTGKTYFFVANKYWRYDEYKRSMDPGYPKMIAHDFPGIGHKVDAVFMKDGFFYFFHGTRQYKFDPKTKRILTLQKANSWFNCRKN
The experiment can be described thus: Inhibition of Human Collagenase (MMP-1). The format is biochemical. The note with it: fluorogenic substrate DNP-Pro-Cha-Gly-Cys(Me)-His-Ala-Lys(NMA)-NH2; room temperature; repeated determinations. As for the experimental part:
Human recombinant collagenase is activated with trypsin using the following ratio: […] of collagenase. The trypsin and collagenase are incubated at room temperature for 10 minutes then a five fold excess (50 mg/10 mg trypsin) of soybean trypsin inhibitor is added.
10 mM stock solutions of inhibitors are made up in dimethyl sulfoxide and then diluted using the following Scheme: 10 mM → 120 µm → 12 µM → 1.2 µM → 0.12 µM [formula]
Twenty-five microliters of each concentration is then added in triplicate to appropriate wells of a 96 well microfluor plate. The final concentration of inhibitor will be a 1:4 dilution after addition of enzyme and substrate. Positive controls (enzyme, no inhibitor) are set up in wells D1-D6 and blanks (no enzyme, no inhibitors) are set in wells D7-D12.
Collagenase is diluted to 400 ng/ml and […] is then added to appropriate wells of the microfluor plate. Final concentration of collagenase in the assay is 100 ng/ml.
Substrate (DNP-Pro-Cha-Gly-Cys(Me)-His-Ala-Lys(NMA)-NH2) is made as a 5 mM stock in dimethyl sulfoxide and then diluted to […] in assay buffer. The assay is initiated by the addition of […] substrate per well of the microfluor plate to give a final concentration of […].
Fluorescence readings (360 nm excitation, 460 nm emission) were taken at time 0 and then at 20 minute intervals. The assay is conducted at room temperature with a typical assay time of 3 hours.
Fluorescence vs time is then plotted for both the blank and collagenase containing samples (data from triplicate determinations is averaged). […] The zero time is used as a blank for each compound at each concentration and these values are subtracted from the 120 minute data. Data is plotted as inhibitor concentration vs % control (inhibitor fluorescence divided by fluorescence of collagenase alone x 100). IC50's are determined from the concentration of inhibitor that gives a signal that is 50% of the control.
If IC50's are reported to be <0.03 mM then the inhibitors are assayed at concentrations of 0.3 mM, 0.03 mM, […].

Values joined by “and” are separate entries in the source; they are usually repeats but may differ in a detail not shown here. Identical values can stand only once.

What is called IC50 is the point on the concentration scale where inhibition reaches its midpoint. Take `COC(=O)CCN(C1(C(=O)NO)CCCC1)S(=O)(=O)c1ccc(-c2ccc(F)cc2)cc1` [Example 1, 3-[(4'-FLUOROBIPHENYL-4-SULFONYL)-(1-HYDROXYCARBAMOYLCYCLO-PENTYL)AMINO]PROPIONIC ACID METHYL ESTER]: the IC50 is 10 nM and 12 nM in experiment [1]; 80 nM and 145 nM in experiment [2].
In the case of `O=C(O)CCN(C1(C(=O)NO)CCCC1)S(=O)(=O)c1ccc(-c2ccc(F)cc2)cc1` [Example 2, 3-[(4'-FLUOROBIPHENYL-4-SULFONYL)-(1-HYDROXYCARBAMOYLCYCLO-PENTYL)AMINO]PROPIONIC ACID], the IC50 in experiment [1] is 1.7 nM and 3.5 nM and 2 nM; in experiment [2], 195 nM and 300 nM and 200 nM.
With `CCOC(=O)CCN(C(C)(C)C(=O)NO)S(=O)(=O)c1ccc(-c2ccc(F)cc2)cc1` [Example 3, 3-{(4'-FLUOROBIPHENYL-4-SULFONYL)-(1-HYDROXYCARBAMOYL-1-METHYL-ETHYL)AMINO]-PROPIONIC ACID ETHYL ESTER], the IC50 is 20 nM and 17 nM in experiment [1]; 4000 nM and 1300 nM in experiment [2].
Take `CC(C)(C(=O)NO)N(CCC(=O)O)S(=O)(=O)c1ccc(-c2ccc(F)cc2)cc1` [Example 4, 3-[(4'-FLUOROBIPHENYL-4-SULFONYL)-(1-HYDROXYCARBAMOYL-1-METHYL-ETHYL)AMINO]PROPIONIC ACID]: the IC50 in experiment [1] was 52 nM; in experiment [2], 800 nM.

The record behind these values is patent EP0895988B1, “Arylsulfonylamino hydroxamic acid derivatives” (Pfizer Products Inc., priority 1997, dated 1999).
